Patent US12186317B2, “Inhibitors of alpha-amino-beta-carboxymuconic acid semialdehyde decarboxylase” (TES Pharma S.r.l., priority 2018, dated 2025)

Target: T1, hACMSD (ACMSD1) (Homo sapiens, UniProt Q8TDX5)
T1 construct: made in house; host or cells: Pichia pastoris
Test: Determination of ACMSD1 inhibition, spectrophotometrical in vitro assay (conversion of 3OH-anthranilic acid into ACMS)
Assay type: biochemical
Details: HAA concentration of 10 μM; recombinant ACMSD1 from Pichia pastoris; 25° C.; absorbance at 360 nm
Experimental: The activity of compounds as inhibitors of ACMSD1 is determined in a spectrophotometrical in vitro assay. The pre-assay mixture is incubated and a compound of Formula (I) or (II), or a pharmaceutically acceptable salt thereof, and ACMSD1 solution is then added. The effect of ACMS concentration on the enzyme activity is investigated by varying 3-hydroxyanthranilic acid (30H-HA) concentration in the pre-assay mixture. Kinetic parameters are calculated from the initial velocity data using a Lineweaver-Burk plot.
The pre-assay mixture consisting of 3-hydroxyanthranilic acid (30H-HA), 3-hydroxyanthranilic acid, 3,4-diOxygenase (HAO), and a dialyzed crude extract of E. coli BL21 (DE3) cells expressing the recombinant enzyme, was incubated at 25° C. with monitoring of the increase in absorbance at 360 nm due to the formation of ACMS from 30H-HA. After the reaction was completed within ˜2 mins, an aliquot of ACMSD1 solution (prepared and purified from Pichia pastoris overexpressing the recombinant enzyme) was added, and the decrease in absorbance at 360 nm was followed at 15 second intervals. The effect of ACMS concentration on the enzyme activity was investigated by varying 30H-HA concentration from 2 to 20 μM. Kinetic parameters were calculated from the initial velocity data by using the Lineweaver-Burk plot.
The rate of the decrease in absorbance caused by ACMSD1 was calculated by subtracting that of the control reaction mixture without ACMSD from that described above. One unit of ACMSD activity was indicated as the amount of enzyme that converts 1 mmol of ACMS per minute at 25° C.
The enzymatic activity was determined at a HAA concentration of 10 μM in the presence of the compounds in Table 1 below. […] In Table 1, A is <0.1 μM; B is 0.1 to 1 μM; C is 1 to 10 μM; and D is >10 μM.

T1 sequence (Q8TDX5 whole entry): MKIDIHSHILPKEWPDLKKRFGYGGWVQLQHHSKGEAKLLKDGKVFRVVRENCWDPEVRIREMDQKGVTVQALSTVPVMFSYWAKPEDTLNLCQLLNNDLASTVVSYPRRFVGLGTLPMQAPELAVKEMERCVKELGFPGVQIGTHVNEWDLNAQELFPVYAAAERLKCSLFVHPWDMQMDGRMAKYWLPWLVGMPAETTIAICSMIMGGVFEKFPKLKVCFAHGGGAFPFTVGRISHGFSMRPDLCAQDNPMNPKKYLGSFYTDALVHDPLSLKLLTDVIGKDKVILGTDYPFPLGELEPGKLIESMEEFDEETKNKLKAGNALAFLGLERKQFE

| Compound | IC50 [nM] |
| --- | --- |
| CCOC(=O)Cc1cccc(CSc2nc(-c3cccs3)c(C#N)c(=O)[nH]2)c1 [I-1, [3-(5-Cyano-6-oxo-4-thiophen-2-yl-1,6-dihydro-pyrimidin-2-ylsulfanylmethyl)-phenyl]-acetic acid ethyl ester] | 1000 to 10000 |
| CNc1nc(SCc2cccc(C(=O)O)c2)nc(-c2cccs2)c1C#N [I-10, 3-(5-Cyano-4-methylamino-6-thiophen-2-yl-pyrimidin-2-ylsulfanylmethyl)-benzoic acid] | 1000 to 10000 |
| N#Cc1c(-c2cccs2)nc(SCc2cccc(S(N)(=O)=O)c2)[nH]c1=O [I-18, 3-(5-Cyano-6-oxo-4-thiophen-2-yl-1,6-dihydro-pyrimidin-2-ylsulfanylmethyl)-benzenesulfonamide] | 100 to 1000 |
| N#Cc1c(Br)nc(SCc2cccc(CC(=O)O)c2)nc1-c1cccs1 [I-5, [3-(4-Bromo-5-cyano-6-thiophen-2-yl-pyrimidin-2-ylsulfanylmethyl)-phenyl]-acetic acid] | 100 to 1000 |
| N#Cc1c(-c2cccs2)cc(=O)[nH]c1SCc1cccc(CC(=O)O)c1 [I-20, [3-(3-Cyano-6-oxo-4-thiophen-2-yl-1,6-dihydro-pyridin-2-ylsulfanylmethyl)-phenyl]-acetic acid] | < 100 |
| N#Cc1c(-c2ccccc2)cc(=O)[nH]c1SCc1cccc(CC(=O)O)c1 [I-19, [3-(3-Cyano-6-oxo-4-phenyl-1,6-dihydro-pyridin-2-ylsulfanylmethyl)-phenyl]-acetic acid] | < 100 |
| CCOC(=O)Cc1cccc(CSc2nc(=O)c(C#N)c(-c3cccs3)n2C)c1 [I-17, [3-(5-Cyano-1-methyl-4-oxo-6-thiophen-2-yl-1,4-dihydro-pyrimidin-2-ylsulfanylmethyl)-phenyl]-acetic acid ethyl ester] | > 10000 |
| COc1nc(SCc2cccc(CC(=O)O)c2)nc(-c2cccs2)c1C#N [I-4, [3-(5-Cyano-4-methoxy-6-thiophen-2-yl-pyrimidin-2-ylsulfanylmethyl)-phenyl]-acetic acid] | 1000 to 10000 |
| N#Cc1c(-c2cccs2)nc(SCc2nnn[nH]2)[nH]c1=O [I-25, 6-Oxo-2-(1H-tetrazol-5-ylmethylsulfanyl)-4-thiophen-2-yl-1,6-dihydro-pyrimidine-5-carbonitrile] | < 100 |
| N#Cc1c(Cc2ccccc2)cc(=O)[nH]c1SCc1cccc(CC(=O)O)c1 [I-23, [3-(4-Benzyl-3-cyano-6-oxo-1,6-dihydro-pyridin-2-ylsulfanylmethyl)-phenyl]-acetic acid] | 1000 to 10000 |
| N#Cc1c(-c2cccs2)nc(SCc2cc(F)c(O)c(F)c2)[nH]c1=O [I-39, 2-(3,5-Difluoro-4-hydroxy-benzylsulfanyl)-6-oxo-4-thiophen-2-yl-1,6-dihydro-pyrimidine-5-carbonitrile] | 1000 to 10000 |
| N#Cc1c(-c2cccs2)nc(SCc2cccc(-c3nn[nH]n3)c2)[nH]c1=O [I-43] | < 100 |
| CNc1nc(SCc2cccc(CC(=O)O)c2)nc(-c2cccs2)c1C#N [I-9, [3-(5-Cyano-4-methylamino-6-thiophen-2-yl-pyrimidin-2-ylsulfanylmethyl)-phenyl]-acetic acid] | 100 to 1000 |
| N#Cc1c(Cc2ccccc2)nc(SCc2cccc(CC(=O)O)c2)[nH]c1=O [I-33, [3-(4-Benzyl-5-cyano-6-oxo-1,6-dihydro-pyrimidin-2-ylsulfanylmethyl)-phenyl]-acetic acid] | < 100 |
| N#Cc1cnc(SCc2cccc(CC(=O)O)c2)nc1-c1cccs1 [I-8, [3-(5-Cyano-6-thiophen-2-yl-pyrimidin-2-ylsulfanylmethyl)-phenyl]-acetic acid] | 100 to 1000 |
| N#Cc1c(-c2cccs2)nc(SCc2cccc(CC(=O)O)c2)nc1N1CCOCC1 [I-15, [3-(5-Cyano-4-morpholin-4-yl-6-thiophen-2-yl-pyrimidin-2-ylsulfanylmethyl)-phenyl]-acetic acid] | 1000 to 10000 |
| N#Cc1c(-c2cccs2)nc(SCc2cccc(CCO)c2)[nH]c1=O [I-12, 2-[3-(2-Hydroxy-ethyl)-benzylsulfanyl]-6-oxo-4-thiophen-2-yl-1,6-dihydropyrimidine-5-carbonitrile] | 1000 to 10000 |
